Data set [1] deals with T1, Toll-like receptor 7 (Homo sapiens, UniProt Q9NYK1).
T1 sequence (Q9NYK1 whole entry): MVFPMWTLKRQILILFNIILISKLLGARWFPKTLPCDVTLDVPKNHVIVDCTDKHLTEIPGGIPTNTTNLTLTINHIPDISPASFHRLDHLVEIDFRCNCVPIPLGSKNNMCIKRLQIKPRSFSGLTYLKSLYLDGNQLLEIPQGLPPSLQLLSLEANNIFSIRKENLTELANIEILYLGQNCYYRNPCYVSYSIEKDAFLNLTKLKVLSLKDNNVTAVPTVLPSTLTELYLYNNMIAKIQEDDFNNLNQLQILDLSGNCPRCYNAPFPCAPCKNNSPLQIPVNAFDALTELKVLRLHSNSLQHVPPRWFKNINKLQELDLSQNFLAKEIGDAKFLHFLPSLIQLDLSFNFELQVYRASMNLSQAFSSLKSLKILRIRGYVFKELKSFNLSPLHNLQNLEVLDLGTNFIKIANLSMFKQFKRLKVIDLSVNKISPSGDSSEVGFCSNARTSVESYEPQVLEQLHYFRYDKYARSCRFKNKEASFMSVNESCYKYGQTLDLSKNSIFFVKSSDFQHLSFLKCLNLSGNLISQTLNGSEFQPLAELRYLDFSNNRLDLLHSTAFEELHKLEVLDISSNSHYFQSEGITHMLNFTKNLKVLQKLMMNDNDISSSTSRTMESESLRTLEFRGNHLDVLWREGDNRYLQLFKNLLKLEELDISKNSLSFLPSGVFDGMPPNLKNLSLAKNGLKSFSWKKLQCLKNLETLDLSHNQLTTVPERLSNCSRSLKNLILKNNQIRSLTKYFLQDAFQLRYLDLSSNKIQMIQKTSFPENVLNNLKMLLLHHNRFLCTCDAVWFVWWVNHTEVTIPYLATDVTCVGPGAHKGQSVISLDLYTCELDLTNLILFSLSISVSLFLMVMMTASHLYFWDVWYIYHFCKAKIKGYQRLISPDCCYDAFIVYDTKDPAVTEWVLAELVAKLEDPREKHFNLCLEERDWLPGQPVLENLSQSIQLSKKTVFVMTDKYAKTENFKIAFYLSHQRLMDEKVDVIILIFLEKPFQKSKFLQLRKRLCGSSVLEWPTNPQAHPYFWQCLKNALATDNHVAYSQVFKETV
Briefly: Agonist activity at TLR7 in HEK-Blue hTLR7 cells expressing NF-kappaB/AP-1 inducible SEAP assessed as increase in SEAP activity incubated for 24 hrs by QUANTI-Blue assay. The data set is classed as cell-based.

In data set [2] the target is T2, Toll-like receptor 7 (Mus musculus, UniProt P58681).
T2 sequence (P58681 whole entry): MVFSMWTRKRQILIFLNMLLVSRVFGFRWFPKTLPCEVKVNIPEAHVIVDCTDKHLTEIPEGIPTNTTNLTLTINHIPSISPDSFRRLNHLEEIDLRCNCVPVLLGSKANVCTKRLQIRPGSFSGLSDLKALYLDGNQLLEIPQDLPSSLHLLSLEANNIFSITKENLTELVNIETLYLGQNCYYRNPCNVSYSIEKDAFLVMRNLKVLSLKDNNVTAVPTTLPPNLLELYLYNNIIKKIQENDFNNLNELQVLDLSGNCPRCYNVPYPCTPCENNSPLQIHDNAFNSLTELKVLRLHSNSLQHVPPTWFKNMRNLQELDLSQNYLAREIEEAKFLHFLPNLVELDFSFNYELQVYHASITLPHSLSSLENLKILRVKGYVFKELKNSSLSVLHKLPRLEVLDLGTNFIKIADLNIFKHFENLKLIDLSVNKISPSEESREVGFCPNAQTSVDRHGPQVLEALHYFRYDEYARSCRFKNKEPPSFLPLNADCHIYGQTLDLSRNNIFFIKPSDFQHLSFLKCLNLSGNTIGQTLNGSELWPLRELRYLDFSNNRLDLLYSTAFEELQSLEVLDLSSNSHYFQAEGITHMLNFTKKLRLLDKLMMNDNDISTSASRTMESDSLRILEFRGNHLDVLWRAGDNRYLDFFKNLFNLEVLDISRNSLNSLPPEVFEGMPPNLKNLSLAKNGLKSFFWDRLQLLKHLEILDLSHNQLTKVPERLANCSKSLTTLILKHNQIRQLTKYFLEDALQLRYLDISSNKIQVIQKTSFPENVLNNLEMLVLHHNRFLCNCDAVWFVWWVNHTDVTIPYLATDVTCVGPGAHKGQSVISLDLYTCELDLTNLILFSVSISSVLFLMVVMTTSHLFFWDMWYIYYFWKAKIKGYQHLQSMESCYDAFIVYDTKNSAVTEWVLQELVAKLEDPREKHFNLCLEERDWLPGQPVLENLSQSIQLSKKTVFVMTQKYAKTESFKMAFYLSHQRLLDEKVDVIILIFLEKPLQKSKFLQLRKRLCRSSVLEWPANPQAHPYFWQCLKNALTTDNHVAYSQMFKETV
Put plainly: Binding affinity to recombinant mouse TLR7 assessed as dissociation constant by SPR analysis. On the technique in general: In SPR one partner is held on a chip, and binding of the other changes the refractive index at the surface.

In data set [3] the test system is L02. Briefly: Cytotoxicity against human L02 cells assessed as reduction in cell viability upto 100 uM incubated for 24 hrs by CCK-8 assay. The data set is classed as toxicity, cell-based. The following applies: l02, 24 h. A general note: Tetrazolium dyes change colour on reduction, which living cells bring about.
Data set [4] can be described thus: Toxicity in C57BL/6J mouse implanted with mouse B16-F10 cells assessed as pathological changes in kidney at 25 mg/kg, ip administered every 2 days starting from 3 days post tumor inoculation and measured on day 18 by H and E staining based analysis. The data set is classed as organism-based. The following applies: in vivo, 360 h, time 15 day.
Data set [5] can be described thus: Toxicity in C57BL/6J mouse implanted with mouse B16-F10 cells assessed as pathological changes in heart at 25 mg/kg, ip administered every 2 days starting from 3 days post tumor inoculation and measured on day 18 by H and E staining based analysis. The following applies: in vivo, 360 h, time 15 day. The data set is classed as organism-based.
Data set [6] can be described thus: Toxicity in C57BL/6J mouse implanted with mouse B16-F10 cells assessed as physical abnormalities at 25 mg/kg, ip administered every 2 days starting from 3 days post tumor inoculation and measured on day 18. Format: organism-based. Conditions: in vivo, 360 h, time 15 day.
Data set [7] is described as follows: Toxicity in C57BL/6J mouse implanted with mouse B16-F10 cells assessed as increase in systemic TNF-alpha secretion in serum at 25 mg/kg, ip administered every 2 days starting from 3 days post tumor inoculation and measured on day 18 by ELISA. The data set is classed as organism-based. Conditions: in vivo, 360 h, time 15 day. Background: ELISA stands for enzyme-linked immunosorbent assay.

Data set [8] in a line: Toxicity in C57BL/6J mouse implanted with mouse B16-F10 cells assessed as reduction in body weight at 2.5 to 20 mg/kg, ip administered every 2 days starting from 3 days post tumor inoculation and measured on day 18. Conditions: in vivo, 360 h, dose 2.5-20 mg/kg, time 15 day. The data set is classed as organism-based.
Data set [9] can be described thus: Toxicity in C57BL/6J mouse implanted with mouse B16-F10 cells assessed as behavioral abnormalities at 25 mg/kg, ip administered every 2 days starting from 3 days post tumor inoculation and measured on day 18. The following applies: in vivo, 360 h, time 15 day. Format: organism-based.
A short description of data set [10]: Toxicity in C57BL/6J mouse implanted with mouse B16-F10 cells assessed as splenomegaly at 25 mg/kg, ip administered every 2 days starting from 3 days post tumor inoculation and measured on day 18. The data set is classed as organism-based. Conditions: in vivo, 360 h, time 15 day.
The nature of data set [11]: Toxicity in C57BL/6J mouse implanted with mouse B16-F10 cells assessed as pathological changes in liver at 25 mg/kg, ip administered every 2 days starting from 3 days post tumor inoculation and measured on day 18 by H and E staining based analysis. The data set is classed as organism-based. The following applies: in vivo, 360 h, time 15 day.
A short description of data set [12]: Toxicity in C57BL/6J mouse implanted with mouse B16-F10 cells assessed as increase in systemic IL-6 secretion in serum at 25 mg/kg, ip administered every 2 days starting from 3 days post tumor inoculation and measured on day 18 by ELISA. The data set is classed as organism-based. The following applies: in vivo, 360 h, time 15 day.
Data set [13] has as its system L929. Briefly: Cytotoxicity against mouse L929 cells assessed as reduction in cell viability upto 100 uM incubated for 24 hrs by CCK-8 assay. Format: toxicity, cell-based. The following applies: l929, 24 h.
The test system of data set [14] is Peritoneal macrophage. Briefly: Induction of M1 like macrophage polarization in mouse peritoneal macrophages assessed as increase in CD86-positive cells at 10 ug/ml incubated for 24 hrs by flow cytometry analysis (reference value: 18.4%). The data set is classed as functional. Conditions: dose 10 µg/ml.
The subject of data set [15] is B16-F10. Put plainly: Antitumor immunity against mouse B16-F10 cells implanted in C57BL/6J mouse assessed as increase in intracellular granzyme B level in tumor CD8-positive T cells at 25 mg/kg, ip administered every 2 days starting from 3 days post tumor inoculation and measured on day 18 by flow cytometry analysis (reference value: 14.5%). The data set is classed as functional. Conditions: time 15 day.

Data set [16] relates to Peritoneal macrophage. Put plainly: Induction of M1 like macrophage polarization in mouse peritoneal macrophages assessed as decrease in CD206-positive cells at 10 ug/ml incubated for 24 hrs by flow cytometry analysis (reference value: 79%). The following applies: dose 10 µg/ml. The data set is classed as functional. Also noted: scale not given: the % may be the effect or the level left.

Each structure is given as a SMILES string.

Consider `CCCCCc1nc2c(N)nc3ccccc3c2n1CC1CCOC1` (stereo not given), for which the EC50 in data set [1] stood at 525 nM.

Consider `CCCCc1nc2c(N)nc3ccccc3c2n1CC1CCOC1` (stereo not given), for which the Kd in data set [2] was found to be 47.2 nM. In addition, the Activity entry in data set [3], in data set [4], in data set [5], in data set [6], in [7] and in data set [8] was “Non-Toxic” throughout. For the same compound, the Activity entry in data set [9], in data set [10], in data set [11], in data set [12] and in data set [13] was “Non-Toxic” throughout.

As for `CCOCc1nc2c(N)nc3ccccc3c2n1CC(C)(C)O` [RESIQUIMOD], the values for the Activity in data set [14], in data set [15] and in data set [16] were 65.8%, 49.9% and 29.8%, respectively.

With `CCCCc1nc2c(N)nc3ccccc3c2n1Cc1ccc(OC)cc1`, in [1], the EC50 was more than 20000 nM.

For `CCCc1nc2c(N)nc3ccccc3c2n1Cc1ccc(C(=O)OC)cc1`, the EC50 in data set [1] is more than 20000 nM.

On to `CCCCc1nc2c(N)nc3ccccc3c2n1Cc1ccc(C(=O)NC)cc1`, for which the EC50 in data set [1] is 226 nM.

In the case of `CCCc1nc2c(N)nc3ccccc3c2n1CC1CCOC1` (stereo not given), the EC50 in [1] came out at 3280 nM.

The term EC50 denotes the midpoint of the concentration-response curve. The Kd is the concentration at which binding is half-saturated.

For the origin of these results see ChEMBL document CHEMBL5518200, “Heterocyclic-Modified Imidazoquinoline Derivatives: Selective TLR7 Agonist Regulates Tumor Microenvironment against Melanoma” (J Med Chem, 2024).
